One assay relates to AR transactivation. Nature of the assay: AR transcriptional reporter assay in PC-3 cells. The note with it: 10 nM DHT, 1 µM. In kind it is cell-based, human. How it is done:
Figure 1 Associations between RIPK1 and AR (A) Co-IP of Flag-RIPK1 with Flag-AR in the 293T cell line. Extracts of 293T cells overexpressing 3xFlag-RIPK1 and 3xFlag-AR were treated with […]. IP was performed using anti-AR (C19) or anti-RIPK1 antibody or normal rabbit serum (negative control), followed by immunoblotting (IB) with antibodies against AR or RIPK1. (B) RIPK1 interacts with full-length AR and the N- and C-terminal regions of AR in GST pull-down assays. Mutation of the FxxFY motif to AxxAA in RIPK1 reduced interactions with AR. […] (C) Transfection of PC-3 prostate cancer cells with AR and RIPK1. PC-3 cells in 24-well plates were co-transfected with 300 ng MMTV-LUC reporter plasmid and 0.5 ng SV40-Renilla luciferase plasmid, together with 100 ng pCMV-Flag-AR and 100, 300 or 500 ng p3xFLAG- RIPK1. The total plasmid DNA content was made up to 1 µg with pCMV. After 16 h, ethanol or 10 nM DHT was added and cells incubated for an additional 16 h. DHT was used as the AR ligand while ARA70N served as the positive control. Relative LUC activity was determined using the dual luciferase system. (D) RIPK1 functional domain mapping in relation to AR transactivation. PC-3 cells were transfected with pCMV-Flag-AR and RIPK1 expression plasmid, P3xFlag-RIPK1 full-length, P3xFlag-RIPK1-(240-671) or P3xflag-RIPK1-(1-558) plasmid, and cultured overnight. Ethanol or 10 nM DHT was added and cells incubated for an additional 16 h. Relative LUC activity was determined using the dual luciferase system. (E) RIPK1 is expressed in benign prostatic hyperplasia tissue, displaying strong positivity (3+, > 90%) in the gland area but weak (1+, 50%) staining in the background. (F) Human prostate cancer tissues were immunostained for RIPK1. “T” indicates the tumor area (right side) and “Non-T” the non-tumor area (left side). RIPK1 expression was weak (1+, 80%) in the cancer area but remained strong (3+, 70%) in the peri-cancer area. The figures are representative of three benign prostatic gland hyperplasia and cancer tissues.
The PC-3 prostate cancer cell line was used for experiments. […]
Background: A reporter such as luciferase makes a cellular process visible.

In another assay the test system is AR. Also noted: method as in PMID 24742982. The note with it: cited from earlier work.
Assay [1] concerns the target W741L-AR (bicalutamide-associated mutant androgen receptor, mammalian two-hybrid) (human). In words: two-hybrid; mammalian two-hybrid (MM2H) in PC-3 cells; Gal-4 peptide fusion with AR; CDX (bicalutamide) 10 µM; values relative to Gal-4 alone.

Chain of W741L-AR (bicalutamide-associated mutant androgen receptor, mammalian two-hybrid) (human) (P10275 whole entry, stated change not applied, the tested form may be a part): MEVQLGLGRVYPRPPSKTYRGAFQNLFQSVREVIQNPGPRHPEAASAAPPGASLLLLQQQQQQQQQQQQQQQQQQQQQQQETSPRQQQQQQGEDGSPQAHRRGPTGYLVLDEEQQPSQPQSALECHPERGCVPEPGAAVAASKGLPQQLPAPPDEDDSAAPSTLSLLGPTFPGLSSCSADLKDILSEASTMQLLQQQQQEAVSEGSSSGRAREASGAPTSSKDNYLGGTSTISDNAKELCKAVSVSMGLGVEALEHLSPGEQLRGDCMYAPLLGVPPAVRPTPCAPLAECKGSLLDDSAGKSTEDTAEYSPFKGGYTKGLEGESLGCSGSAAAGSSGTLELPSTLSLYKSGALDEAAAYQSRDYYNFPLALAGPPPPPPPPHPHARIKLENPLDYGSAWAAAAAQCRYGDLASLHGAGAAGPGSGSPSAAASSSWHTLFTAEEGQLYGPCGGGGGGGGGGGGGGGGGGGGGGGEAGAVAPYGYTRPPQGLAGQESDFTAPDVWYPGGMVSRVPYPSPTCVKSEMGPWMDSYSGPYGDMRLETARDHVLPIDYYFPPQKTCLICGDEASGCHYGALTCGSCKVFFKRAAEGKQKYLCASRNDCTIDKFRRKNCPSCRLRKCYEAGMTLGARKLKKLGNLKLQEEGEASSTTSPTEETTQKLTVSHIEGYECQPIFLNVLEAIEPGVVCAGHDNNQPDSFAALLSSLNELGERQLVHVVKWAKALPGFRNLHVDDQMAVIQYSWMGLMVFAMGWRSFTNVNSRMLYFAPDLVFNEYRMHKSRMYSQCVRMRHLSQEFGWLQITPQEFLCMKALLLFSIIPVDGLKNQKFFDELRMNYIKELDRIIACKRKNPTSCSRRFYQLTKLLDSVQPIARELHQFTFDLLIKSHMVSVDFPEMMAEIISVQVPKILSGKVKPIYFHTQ

Consider `CNC(=O)c1ccc(N2C(=S)N(c3ccc(C#N)c(C(F)(F)F)c3)C(=O)C2(C)C)cc1F` [enzalutamide, reference compound], for which the “suppression of AR transactivation” value in the assay on AR transactivation was “suppressed AR transactivation”.

Take `Nc1cc(N2CCCCC2)nc(N)[n+]1[O-]` [Minoxidil]: the “suppression of AR related function” value in the assay on AR is given as “suppress AR related function”.

In the case of GIEEKFRPFYLSQLE [RIP-p, short FxxFY-containing peptide of RIPK1 (No. 13)], the relative reporter activity in the mammalian two-hybrid assay (Gal-4 alone = 1) in assay [1] was 554.

With NTNAFSRLFYPS [#3-18 peptide (No. 12, positive control; GAL4-DBD-3-18)], the relative reporter activity in the mammalian two-hybrid assay (Gal-4 alone = 1) in assay [1] came out at 128.

The record behind these values is PMC5642495, “Characterization of a novel androgen receptor (AR) coregulator RIPK1 and related chemicals that suppress AR-mediated prostate cancer growth via peptide and chemical screening” (Oncotarget, 2017).
